Data reported in EP4650353A1 (Shanghai Institute of Materia Medica, Chinese Academy of …, priority 2023, dated 2024).
pEC50: −log10 of the molar value.

target: T1, human GLP-1 receptor (Homo sapiens, UniProt P43220); experiment: GLP-1 receptor-mediated agonist activity: cAMP level in hGLP-1R/HEK293 cell line (HTRF); format: cell-based; conditions: cAMP levels in hGLP-1R/HEK293 cell line; Table 1; read-out: determined EC50
T1 construct: HA (N); expressed in transfected cells
T1 sequence (P43220 24-463): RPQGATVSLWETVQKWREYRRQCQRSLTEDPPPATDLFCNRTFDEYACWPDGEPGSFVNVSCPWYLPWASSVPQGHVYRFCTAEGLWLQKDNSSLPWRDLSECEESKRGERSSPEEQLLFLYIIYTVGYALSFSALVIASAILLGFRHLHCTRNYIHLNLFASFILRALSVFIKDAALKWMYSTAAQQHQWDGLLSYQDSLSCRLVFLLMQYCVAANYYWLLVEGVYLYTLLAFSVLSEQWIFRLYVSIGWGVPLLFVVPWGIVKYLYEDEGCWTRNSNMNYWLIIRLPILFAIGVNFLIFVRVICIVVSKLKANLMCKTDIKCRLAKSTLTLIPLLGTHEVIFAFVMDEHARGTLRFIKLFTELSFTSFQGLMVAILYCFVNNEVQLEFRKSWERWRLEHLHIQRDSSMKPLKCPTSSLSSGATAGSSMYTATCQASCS

| pEC50 | Compound |
| --- | --- |
| 10.33 | CCOc1cc(C(=O)O)cc2c1nc(CN1CCC(c3cccnc3OCc3ccc(C#N)cc3F)CC1)n2C[C@@H]1CCO1 [Compound 33, (S)-2-((4-(2-((4-cyano-2-fluorobenzyl)oxy)pyridin-3-yl)piperidin-1-yl)methyl)-4-ethoxy-1-(oxetan-2-ylmethyl)-1H-benzo[d]imidazole-6-carboxylic acid] |
| 11.09 | COc1cc(C(=O)O)cc2c1nc(CN1CCC(c3cccnc3OCc3ccc(C#N)c4c3OCC4)CC1)n2C[C@@H]1CCO1 [Compound 35, (S)-2-((4-(2-((4-cyano-2,3-dihydrobenzofuran-7-yl)methoxy)pyridin-3-yl)piperidin-1-yl)methyl)-4-methoxy-1-(oxetan-2-ylmethyl)-1H-benzo[d]imidazole-6-carboxylic acid] |
| 11.08 | COc1cc(C(=O)O)cc2c1nc(CN1CCC(c3cccc4c3OC(C)(c3ccc(Cl)cc3F)O4)CC1)n2C[C@@H]1CCO1 (stereo partly drawn) [Compound 36, 2-((4-(2-(4-chloro-2-fluorophenyl)-2-methylbenzo[d][1,3]dioxol-4-yl)piperidin-1-yl)methyl)-4-methoxy-1-(((S)-oxetan-2-yl)methyl)-1H-benzo[d]imidazole-6-carboxylic acid] |
| 11.06 | COc1cc(C(=O)O)cc2c1nc(CN1CCC(c3cccc(OCc4ccc(C(F)(F)F)cc4F)n3)CC1)n2C[C@@H]1CCO1 [Compound 27, (S)-2-((4-(6-((2-fluoro-4-(trifluoromethyl)benzyl)oxy)pyridin-2-yl)piperidin-1-yl)methyl)-4-methoxy-1-(oxetan-2-ylmethyl)-1H-benzo[d]imidazole-6-carboxylic acid] |
| 11.66 | CCOc1cc(C(=O)O)cc2c1nc(CN1CCC(c3cccc4c3OC(C)(c3ccc(Cl)cc3OC)O4)CC1)n2C[C@@H]1CCO1 (stereo partly drawn) [Compound 58, 2-((4-(2-(4-chloro-2-methoxyphenyl)-2-methylbenzo[d][1,3]dioxol-4-yl)piperidin-1-yl)methyl)-4-ethoxy-1-(((S)-oxetan-2-yl)methyl)-1H-benzo[d]imidazole-6-carboxylic acid] |
| 11.31 | CCCOc1cc(C(=O)O)cc2c1nc(CN1CCN(c3cccc(OCc4ccc(C#N)cc4F)n3)C=N1)n2C[C@@H]1CCO1 [Compound 10, (S)-2-((4-(6-((4-cyano-2-fluorobenzyl)oxy)pyridin-2-yl)-5,6-dihydro-1,2,4-triazin-1(4H)-yl)methyl)-1-(oxetan-2-ylmethyl)-4-propoxy-1H-benzo[d]imidazole-6-carboxylic acid] |
| 10.95 | COc1cc(C(=O)O)cc2c1nc(CN1CCN(c3cccc4c3OC(C)(c3ccc(Cl)cc3F)O4)CC1)n2C[C@@H]1CCO1 (stereo partly drawn) [Compound 40, 2-((4-(2-(4-chloro-2-fluorophenyl)-2-methylbenzo[d][1,3]dioxol-4-yl)piperazin-1-yl)methyl)-4-methoxy-1-(((S)-oxetan-2-yl)methyl)-1H-benzo[d]imidazole-6-carboxylic acid] |
| 11.06 | COc1cc(C(F)(F)F)ccc1C1(C)Oc2cccc(N3C=NN(Cc4nc5c(OC)cc(C(=O)O)cc5n4C[C@@H]4CCO4)CC3)c2O1 (stereo partly drawn) [Compound 88, 4-methoxy-2-((4-(2-(2-methoxy-4-(trifluoromethyl)phenyl)-2-methylbenzo[d][1,3]dioxol-4-yl)-5,6-dihydro-1,2,4-triazin-1(4H)-yl)methyl)-1-(((S)-oxetan-2-yl)methyl)-1H-benzo[d]imidazole-6-carboxylic acid] |
| 11.28 | CCOc1cc(C(=O)O)cc2c1nc(CN1CCN(c3cccc4c3OC(C)(c3ccc(C(F)(F)F)cn3)O4)C=N1)n2C[C@@H]1CCO1 (stereo partly drawn) [Compound 66, 4-ethoxy-2-((4-(2-methyl-2-(5-(trifluoromethyl)pyridin-2-yl)benzo[d][1,3]dioxol-4-yl)-5,6-dihydro-1,2,4-triazin-1(4H)-yl)methyl)-1-(((S)-oxetan-2-yl)methyl)-1H-benzo[d]imidazole-6-carboxylic acid] |
| 10.29 | COc1cc(C(=O)O)cc2c1nc(CN1CCC(c3ccccc3OCc3ccc(Cl)c4c3OCC4)CC1)n2C[C@@H]1CCO1 [Compound 45, (S)-2-((4-(2-((4-chloro-2,3-dihydrobenzofuran-7-yl)methoxy)phenyl)piperidin-1-yl)methyl)-4-methoxy-1-(oxetan-2-ylmethyl)-1H-benzo[d]imidazole-6-carboxylic acid] |
| 11.11 | CCOc1cc(C(=O)O)cc2c1nc(CN1CCC(c3cccc4c3OC(C)(c3ccc(C(F)(F)F)cc3F)O4)CC1)n2C[C@@H]1CCO1 (stereo partly drawn) [Compound 54, 4-ethoxy-2-((4-(2-(2-fluoro-4-(trifluoromethyl)phenyl)-2-methylbenzo[d][1,3]dioxol-4-yl)piperidin-1-yl)methyl)-1-(((S)-oxetan-2-yl)methyl)-1H-benzo[d]imidazole-6-carboxylic acid] |
| 11.19 | CCOc1cc(C(=O)O)cc2c1nc(CN1CCN(c3cccc4c3OC(C)(c3ccc(Cl)cc3F)O4)C=N1)n2C[C@@H]1CCO1 (stereo partly drawn) [Compound 68, 2-((4-(2-(4-chloro-2-fluorophenyl)-2-methylbenzo[d][1,3]dioxol-4-yl)-5,6-dihydro-1,2,4-triazin-1(4H)-yl)methyl)-4-ethoxy-1-(((S)-oxetan-2-yl)methyl)-1H-benzo[d]imidazole-6-carboxylic acid] |
| 11.28 | CCOc1cc(C(=O)O)cc2c1nc(CN1CCN(c3cccc(OCc4ccc(C(F)(F)F)cc4F)n3)C=N1)n2C[C@@H]1CCO1 [Compound 24, (S)-4-ethoxy-2-((4-(6-((2-fluoro-4-(trifluoromethyl)benzyl)oxy)pyridin-2-yl)-5,6-dihydro-1,2,4-triazin-1(4H)-yl)methyl)-1-(oxetan-2-ylmethyl)-1H-benzo[d]imidazole-6-carboxylic acid] |

The next lines start with the compound.

| Compound | pEC50 |
| --- | --- |
| COc1cc(C(=O)O)cc2c1nc(CN1CCC(c3cccnc3OCc3ccc(Cl)cc3F)CC1)n2C[C@@H]1CCO1 [Compound 31, (S)-2-((4-(2-((4-chloro-2-fluorobenzyl)oxy)pyridin-3-yl)piperidin-1-yl)methyl)-4-methoxy-1-(oxetan-2-ylmethyl)-1H-benzo[d]imidazole-6-carboxylic acid] | 10.43 |
| COc1cc(C#N)ccc1COc1cccc(C2CCN(Cc3nc4c(OC)cc(C(=O)O)cc4n3C[C@@H]3CCO3)CC2)c1 [Compound 42, (S)-2-((4-(3-((4-cyano-2-methoxybenzyl)oxy)phenyl)piperidin-1-yl)methyl)-4-methoxy-1-(oxetan-2-ylmethyl)-1H-benzo[d]imidazole-6-carboxylic acid] | 10.53 |
| O=C(O)c1cc(OC2CC2)c2nc(CN3CCN(c4cccc(OCc5ccc(Cl)cc5F)n4)C=N3)n(C[C@@H]3CCO3)c2c1 [Compound 25, (S)-2-((4-(6-((4-chloro-2-fluorobenzyl)oxy)pyridin-2-yl)-5,6-dihydro-1,2,4-triazin-1(4H)-yl)methyl)-4-cyclopropyloxy-1-(oxetan-2-ylmethyl)-1H-benzo[d]imidazole-6-carboxylic acid] | 10.93 |
| CCOc1cc(C(=O)O)cc2c1nc(CN1CCN(c3cccc4c3OC(C)(c3ccc(F)cc3F)O4)C=N1)n2C[C@@H]1CCO1 (stereo partly drawn) [Compound 86, 2-((4-(2-(2,4-difluorophenyl)-2-methylbenzo[d][1,3]dioxol-4-yl)-5,6-dihydro-1,2,4-triazin-1(4H)-yl)methyl)-4-ethoxy-1-(((S)-oxetan-2-yl)methyl)-1H-benzo[d]imidazole-6-carboxylic acid] | 10.54 |
| COc1cc(C(=O)O)cc2c1nc(CN1CCC(c3cccc(OCc4ccc(C#N)cc4F)n3)CC1)n2C[C@@H]1CCO1 [Compound 1, (S)-2-((4-(6-((4-cyano-2-fluorobenzyl)oxy)pyridin-2-yl)piperidin-1-yl)methyl)-4-methoxy-1-(oxetan-2-ylmethyl)-1H-benzo[d]imidazole-6-carboxylic acid] | 11.32 |
| [2H]C([2H])([2H])Oc1cc(C(=O)O)cc2c1nc(CN1CCN(c3cccc4c3OC(C)(c3ccc(Cl)cc3F)O4)C=N1)n2C[C@@H]1CCO1 (stereo partly drawn) [Compound 71, 2-((4-(2-(4-chloro-2-fluorophenyl)-2-methylbenzo[d][1,3]dioxol-4-yl)-5,6-dihydro-1,2,4-triazin-1(4H)-yl)methyl)-4-(methoxy-d3)-1-(((S)-oxetan-2-yl)methyl)-1H-benzo[d]imidazole-6-carboxylic acid] | 10.76 |
| CC1(c2ccc(Cl)cn2)Oc2cccc(C3CCN(Cc4nc5c(OC(F)F)cc(C(=O)O)cc5n4C[C@@H]4CCO4)CC3)c2O1 (stereo partly drawn) [Compound 62, 2-((4-(2-(5-chloropyridin-2-yl)-2-methylbenzo[d][1,3]dioxol-4-yl)piperidin-1-yl)methyl)-4-(difluoromethoxy)-1-(((S)-oxetan-2-yl)methyl)-1H-benzo[d]imidazole-6-carboxylic acid] | 10.66 |
| COc1cc(C(=O)O)cc2c1nc(CN1CCC(c3cccc(OCc4ccc(C#N)c5c4OCC5)c3)CC1)n2C[C@@H]1CCO1 [Compound 43, (S)-2-((4-(3-((4-cyano-2,3-dihydrobenzofuran-7-yl)methoxy)phenyl)piperidin-1-yl)methyl)-4-methoxy-1-(oxetan-2-ylmethyl)-1H-benzo[d]imidazole-6-carboxylic acid] | 10.47 |
| COc1cc(C(=O)O)cc2c1nc(CN1CCN(c3cccc(OCc4ccc(Cl)cc4F)n3)CC1)n2C[C@@H]1CCO1 [Compound 30, (S)-2-((4-(6-((4-chloro-2-fluorobenzyl)oxy)pyridin-2-yl)piperazin-1-yl)methyl)-4-methoxy-1-(oxetan-2-ylmethyl)-1H-benzo[d]imidazole-6-carboxylic acid] | 11.02 |

same assay, conditions: cAMP levels of the hGLP-1R/HEK293 cell line; Table 2, comparison with reference compounds; read-out: EC50

| pEC50 | Compound |
| --- | --- |
| 9.47 | CC1(c2ccc(Cl)cn2)Oc2cccc(N3C=NN(Cc4nc5ccc(C(=O)O)cc5n4C[C@@H]4CCO4)CC3)c2O1 (stereo partly shown) [CN2022114139828 , Compound 36, reference compound] |
| 10.49 | O=C(O)c1ccc2nc(CN3CCC(c4cccc(OCc5ccc(Cl)cc5F)n4)CC3)n(C[C@@H]3CCO3)c2c1 [WO2018109607 , Example 3A-01, reference compound] |
| 9.86 | CC1(c2ccc(Cl)cc2F)Oc2cccc(N3C=NN(Cc4nc5ccc(C(=O)O)cc5n4C[C@@H]4CCO4)CC3)c2O1 (stereo partly shown) [CN2022114139828 , Compound 37, reference compound] |
